Results published in publication PMC11748363, “Antimicrobial and Antiproliferative Properties of 2‐Phenyl‐N‐(Pyridin‐2‐yl)acetamides” (Chemical Biology & Drug Design, 2025).
≈ marks a conversion by molar mass, not a printed value. Read-outs that look alike come from different tables or passages of the source.

Experiments:
[1] = test system: Mycobacterium tuberculosis H37Ra; assay: Antimycobacterial microdilution broth MIC (resazurin), Mtb H37Ra; format: cell-based; settings: for MIC: Mycobacterium tuberculosis, H37RA, read-out: MIC Mtb H37Ra; for SI (selectivity index): SI = HepG2 IC50 (μM)/MIC MtbH37Ra (μM), calculated for compounds with MIC ≤ 31.25 μg/mL
[2] = test system: Mycolicibacterium smegmatis DSM 43465; assay: Antimycobacterial microdilution broth MIC (resazurin), M. smegmatis; format: cell-based; settings: DSM43465, read-out: MIC M. smegmatis
[3] = test system: Mycolicibacterium aurum DSM 43999; assay: Antimycobacterial microdilution broth MIC (resazurin), M. aurum; format: cell-based; settings: DSM43999, read-out: MIC M. aurum
HepG2 cell line = assay: Cytotoxicity CellTiter 96, HepG2; format: cell-based, human; settings: Homo sapiens, HepG2, 24 h, 24 h incubation; ^c compound precipitated in the testing medium; ^d over the limit of tested concentrations
[4] = test system: Staphylococcus aureus CCM 4223, ATCC 29213; assay: Antibacterial microdilution broth MIC, SA; format: cell-based; settings: Staphylococcus aureus
[5] = test system: Staphylococcus aureus subsp. aureus CCM 4750, ATCC 43300 (MRSA); assay: Antibacterial microdilution broth MIC, MRSA; format: cell-based; settings: Staphylococcus aureus
[6] = test system: Staphylococcus epidermidis CCM 4418, ATCC 12228; assay: Antibacterial microdilution broth MIC, SE; format: cell-based
[7] = test system: Enterococcus faecalis CCM 4224, ATCC 29212; assay: Antibacterial microdilution broth MIC, EF; format: cell-based
[8] = test system: Escherichia coli CCM 3954, ATCC 25922; assay: Antibacterial microdilution broth MIC, EC; format: cell-based
[9] = test system: Acinetobacter baumannii DSM 30007, ATCC 19606; assay: Antibacterial microdilution broth MIC, ACI; format: cell-based
[10] = test system: Pseudomonas aeruginosa CCM 3955, ATCC 27853; assay: Antibacterial microdilution broth MIC, PA; format: cell-based
[11] = test system: Candida albicans CCM 8320, ATCC 24433; assay: Antifungal microdilution broth MIC, CA
[12] = test system: Candida krusei CCM 8271, ATCC 6258; assay: Antifungal microdilution broth MIC, CK; settings: Pichia kudriavzevii
[13] = test system: Candida parapsilosis CCM 8260, ATCC 22019; assay: Antifungal microdilution broth MIC, CP; settings: Lodderomyces parapsilosis
[14] = test system: Candida tropicalis CCM 8264, ATCC 750; assay: Antifungal microdilution broth MIC, CT
[15] = test system: Aspergillus fumigatus ATCC 204305; assay: Antifungal microdilution broth MIC, AF
[16] = test system: Lichtheimia corymbifera CCM 8077; assay: Antifungal microdilution broth MIC, LC
[17] = test system: Trichophyton interdigitale CCM 8377, ATCC 9533; assay: Antifungal microdilution broth MIC, TI; settings: Trichophyton interdigitale
[18] = test system: Aspergillus flavus CCM 8363; assay: Antifungal microdilution broth MIC, AFla
[19] = test system: Klebsiella pneumoniae CCM 4415, ATCC 10031; assay: Antibacterial microdilution broth MIC, KP
[20] = ATCC204305, 24 h, read-out: MIC AF 24h
[21] = ATCC204305, 48 h, read-out: MIC AF 48h
[22] = CCM8077, 24 h, read-out: MIC LC 24h
[23] = CCM8077, 48 h, read-out: MIC LC 48h
[24] = CCM8363, 24 h, read-out: MIC AFla 24h
[25] = CCM8363, 48 h, read-out: MIC AFla 48h

O=C(Cc1ccccc1)Nc1ccc(Cl)cn1 [Compound 2]
MIC ([1]; Calculated from MIC (μg/mL)): 63.3 µM | MIC [1]: 15.6 µg/mL | SI (selectivity index) [1]: > 1.6 | MIC [2]: 500 µg/mL (≈ 2030 µM) | MIC [3]: 500 µg/mL (≈ 2030 µM) | IC50 (HepG2 cell line): > 100 µM | MIC ([4]; 24 h, read-out: MIC SA 24h): > 500 µM | MIC ([4]; 48 h, read-out: MIC SA 48h): > 500 µM | MIC ([5]; 24 h, read-out: MIC MRSA 24h): > 500 µM | MIC ([5]; 48 h, read-out: MIC MRSA 48h): > 500 µM | MIC ([6]; 24 h, read-out: MIC SE 24h): > 500 µM | MIC ([6]; 48 h, read-out: MIC SE 48h): > 500 µM | MIC ([7]; 24 h, read-out: MIC EF 24h): > 500 µM | MIC ([7]; 48 h, read-out: MIC EF 48h): > 500 µM | MIC ([8]; 24 h, read-out: MIC EC 24h): > 500 µM | MIC ([8]; 48 h, read-out: MIC EC 48h): > 500 µM | MIC ([9]; 24 h, read-out: MIC ACI 24h): > 500 µM | MIC ([9]; 48 h, read-out: MIC ACI 48h): > 500 µM | MIC ([10]; 24 h, read-out: MIC PA 24h): > 500 µM | MIC ([10]; 48 h, read-out: MIC PA 48h): > 500 µM | MIC ([11]; 24 h, read-out: MIC CA 24h): > 500 µM | MIC ([11]; 48 h, read-out: MIC CA 48h): > 500 µM | MIC ([12]; 24 h, read-out: MIC CK 24h): > 500 µM | MIC ([12]; 48 h, read-out: MIC CK 48h): > 500 µM | MIC ([13]; 24 h, read-out: MIC CP 24h): > 500 µM | MIC ([13]; 48 h, read-out: MIC CP 48h): > 500 µM | MIC ([14]; 24 h, read-out: MIC CT 24h): > 500 µM | MIC ([14]; 48 h, read-out: MIC CT 48h): > 500 µM | MIC [15, 20]: > 500 µM | MIC [15, 21]: > 500 µM | MIC [16, 22]: > 500 µM | MIC [16, 23]: > 500 µM | MIC ([17]; 72 h, read-out: MIC TI 72h): > 500 µM | MIC ([17]; 120 h, read-out: MIC TI 120h): > 500 µM | MIC [18, 24]: > 500 µM | MIC [18, 25]: > 500 µM | MIC KP 24h [19]: > 500 µmol/L | MIC KP 48h [19]: > 500 µmol/L

O=C(Cc1ccccc1)Nc1cccc(Cl)n1 [Compound 3]
MIC ([1]; Calculated from MIC (μg/mL)): 127 µM | MIC [1]: 31.2 µg/mL | SI (selectivity index) [1]: 3.42 | MIC [2]: 15.6 µg/mL (≈ 63.3 µM) | MIC [3]: 62.5 µg/mL (≈ 253 µM) | IC50 (HepG2 cell line): 433 µM | MIC ([4]; 24 h, read-out: MIC SA 24h): 500 µM (≈ 123 µg/mL) | MIC ([4]; 48 h, read-out: MIC SA 48h): 500 µM (≈ 123 µg/mL) | MIC ([5]; 24 h, read-out: MIC MRSA 24h): > 500 µM | MIC ([5]; 48 h, read-out: MIC MRSA 48h): > 500 µM | MIC ([6]; 24 h, read-out: MIC SE 24h): > 500 µM | MIC ([6]; 48 h, read-out: MIC SE 48h): > 500 µM | MIC ([7]; 24 h, read-out: MIC EF 24h): > 500 µM | MIC ([7]; 48 h, read-out: MIC EF 48h): > 500 µM | MIC ([8]; 24 h, read-out: MIC EC 24h): > 500 µM | MIC ([8]; 48 h, read-out: MIC EC 48h): > 500 µM | MIC ([9]; 24 h, read-out: MIC ACI 24h): > 500 µM | MIC ([9]; 48 h, read-out: MIC ACI 48h): > 500 µM | MIC ([10]; 24 h, read-out: MIC PA 24h): > 500 µM | MIC ([10]; 48 h, read-out: MIC PA 48h): > 500 µM | MIC ([11]; 24 h, read-out: MIC CA 24h): > 500 µM | MIC ([11]; 48 h, read-out: MIC CA 48h): > 500 µM | MIC ([12]; 24 h, read-out: MIC CK 24h): 250 µM (≈ 61.7 µg/mL) | MIC ([12]; 48 h, read-out: MIC CK 48h): 500 µM (≈ 123 µg/mL) | MIC ([13]; 24 h, read-out: MIC CP 24h): 500 µM (≈ 123 µg/mL) | MIC ([13]; 48 h, read-out: MIC CP 48h): > 500 µM | MIC ([14]; 24 h, read-out: MIC CT 24h): > 500 µM | MIC ([14]; 48 h, read-out: MIC CT 48h): > 500 µM | MIC [15, 20]: > 500 µM | MIC [15, 21]: > 500 µM | MIC [16, 22]: > 500 µM | MIC [16, 23]: > 500 µM | MIC ([17]; 72 h, read-out: MIC TI 72h): 125 µM (≈ 30.8 µg/mL) | MIC ([17]; 120 h, read-out: MIC TI 120h): 250 µM (≈ 61.7 µg/mL) | MIC [18, 24]: > 500 µM | MIC [18, 25]: > 500 µM | MIC KP 24h [19]: > 500 µmol/L | MIC KP 48h [19]: > 500 µmol/L

COc1ccccc1CC(=O)Nc1ccccn1 [Compound 4]
MIC ([1]; Calculated from MIC (μg/mL)): 516 µM | MIC [1]: 125 µg/mL | MIC [2]: > 500 µg/mL | MIC [3]: 250 µg/mL (≈ 1030 µM) | IC50 (HepG2 cell line): > 1000 µM | MIC ([4]; 24 h, read-out: MIC SA 24h): > 500 µM | MIC ([4]; 48 h, read-out: MIC SA 48h): > 500 µM | MIC ([5]; 24 h, read-out: MIC MRSA 24h): > 500 µM | MIC ([5]; 48 h, read-out: MIC MRSA 48h): > 500 µM | MIC ([6]; 24 h, read-out: MIC SE 24h): > 500 µM | MIC ([6]; 48 h, read-out: MIC SE 48h): > 500 µM | MIC ([7]; 24 h, read-out: MIC EF 24h): > 500 µM | MIC ([7]; 48 h, read-out: MIC EF 48h): > 500 µM | MIC ([8]; 24 h, read-out: MIC EC 24h): > 500 µM | MIC ([8]; 48 h, read-out: MIC EC 48h): > 500 µM | MIC ([9]; 24 h, read-out: MIC ACI 24h): > 500 µM | MIC ([9]; 48 h, read-out: MIC ACI 48h): > 500 µM | MIC ([10]; 24 h, read-out: MIC PA 24h): > 500 µM | MIC ([10]; 48 h, read-out: MIC PA 48h): > 500 µM | MIC ([11]; 24 h, read-out: MIC CA 24h): > 500 µM | MIC ([11]; 48 h, read-out: MIC CA 48h): > 500 µM | MIC ([12]; 24 h, read-out: MIC CK 24h): > 500 µM | MIC ([12]; 48 h, read-out: MIC CK 48h): > 500 µM | MIC ([13]; 24 h, read-out: MIC CP 24h): > 500 µM | MIC ([13]; 48 h, read-out: MIC CP 48h): > 500 µM | MIC ([14]; 24 h, read-out: MIC CT 24h): > 500 µM | MIC ([14]; 48 h, read-out: MIC CT 48h): > 500 µM | MIC [15, 20]: > 500 µM | MIC [15, 21]: > 500 µM | MIC [16, 22]: > 500 µM | MIC [16, 23]: > 500 µM | MIC ([17]; 72 h, read-out: MIC TI 72h): > 500 µM | MIC ([17]; 120 h, read-out: MIC TI 120h): > 500 µM | MIC [18, 24]: > 500 µM | MIC [18, 25]: > 500 µM | MIC KP 24h [19]: > 500 µmol/L | MIC KP 48h [19]: > 500 µmol/L
